{
  "source": "paper PMC9726829",
  "about": "“Structures and mechanism of chitin synthase and its inhibition by antifungal drug Nikkomycin Z” (Cell Discovery, 2022)",
  "key": {"[1]": {"target": "T1, S. cerevisiae Chs1 (Saccharomyces cerevisiae, UniProt P08004)", "T1 construct": "expressed and purified membrane protein, homodimer; residues numbered to 1131; residues 1-377, 699-703, 897-907, 1076-1084 not resolved", "T1 sequence (P08004 1-1131)": "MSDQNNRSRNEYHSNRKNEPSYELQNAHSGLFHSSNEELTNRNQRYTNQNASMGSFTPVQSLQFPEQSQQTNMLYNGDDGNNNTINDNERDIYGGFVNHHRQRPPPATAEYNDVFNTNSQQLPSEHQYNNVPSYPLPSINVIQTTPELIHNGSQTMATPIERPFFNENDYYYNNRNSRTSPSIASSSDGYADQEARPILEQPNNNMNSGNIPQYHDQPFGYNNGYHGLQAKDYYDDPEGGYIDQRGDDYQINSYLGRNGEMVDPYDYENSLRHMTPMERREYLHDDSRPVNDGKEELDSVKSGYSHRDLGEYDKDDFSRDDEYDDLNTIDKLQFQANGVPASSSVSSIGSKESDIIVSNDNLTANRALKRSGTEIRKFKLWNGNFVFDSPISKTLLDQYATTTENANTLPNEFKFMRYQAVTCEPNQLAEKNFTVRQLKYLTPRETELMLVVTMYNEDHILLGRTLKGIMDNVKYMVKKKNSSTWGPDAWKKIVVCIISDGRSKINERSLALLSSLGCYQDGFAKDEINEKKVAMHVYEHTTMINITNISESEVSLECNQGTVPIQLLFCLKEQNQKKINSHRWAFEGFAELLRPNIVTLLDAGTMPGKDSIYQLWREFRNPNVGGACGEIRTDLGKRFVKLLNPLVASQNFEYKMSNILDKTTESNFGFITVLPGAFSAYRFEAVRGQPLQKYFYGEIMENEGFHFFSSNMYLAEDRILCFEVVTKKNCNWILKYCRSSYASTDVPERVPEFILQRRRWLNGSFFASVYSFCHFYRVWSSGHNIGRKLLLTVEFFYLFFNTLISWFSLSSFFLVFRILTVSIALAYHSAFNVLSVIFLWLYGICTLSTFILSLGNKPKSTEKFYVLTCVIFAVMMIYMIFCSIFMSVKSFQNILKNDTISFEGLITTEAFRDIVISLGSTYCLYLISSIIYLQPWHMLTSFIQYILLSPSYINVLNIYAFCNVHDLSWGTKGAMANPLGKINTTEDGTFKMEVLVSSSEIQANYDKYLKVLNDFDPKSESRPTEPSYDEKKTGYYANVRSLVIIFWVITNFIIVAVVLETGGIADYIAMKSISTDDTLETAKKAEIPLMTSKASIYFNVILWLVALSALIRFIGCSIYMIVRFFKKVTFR", "experiment": "in vitro chitin synthase activity assay", "type": "biochemical", "details": "activator; UDP-GlcNAc as donor substrate"}, "[2]": {"target": "T1, S. cerevisiae Chs1", "experiment": "in vitro chitin synthase activity assay; cryo-EM structure of the complex at […] A also solved", "type": "biochemical"}, "[3]": {"target": "the molecule itself", "experiment": "cryo-EM structure; purified Chs1 in complex with Nikkomycin Z (NikZ), in detergent micelle; 2.9 Å, imposed C2 symmetry"}},
  "data": [
    {"molecule": "CC(=O)N[C@H]1C(O)O[C@H](CO)[C@@H](O)[C@@H]1O", "note": "(stereo partly drawn) [N-acetylglucosamine]", "values": [
      {"measurement": "in vitro chitin synthase activity assay", "setting": "[1]", "value": "Chs1 activity can be significantly stimulated by GlcNAc"}
    ]},
    {"molecule": "C[C@@H]([C@H](N)C(=O)N[C@H](C(=O)O)[C@H]1O[C@@H](n2ccc(=O)[nH]c2=O)[C@H](O)[C@@H]1O)[C@H](O)c1ccc(O)cn1", "note": "[Nikkomycin Z]", "values": [
      {"measurement": "IC50", "setting": "[2]", "value": 367, "unit": "nM"}
    ]},
    {"molecule": "S. cerevisiae chitin synthase Chs1 (enzyme, Chitin synthase 1 (Chs1) of S. cerevisiae; residues 1-377, 699-703, 897-907 and 1076-1084 are not resolved in the map; Homodimer; source: expressed and purified) MSDQNNRSRNEYHSNRKNEPSYELQNAHSGLFHSSNEELTNRNQRYTNQNASMGSFTPVQSLQFPEQSQQTNMLYNGDDGNNNTINDNERDIYGGFVNHHRQRPPPATAEYNDVFNTNSQQLPSEHQYNNVPSYPLPSINVIQTTPELIHNGSQTMATPIERPFFNENDYYYNNRNSRTSPSIASSSDGYADQEARPILEQPNNNMNSGNIPQYHDQPFGYNNGYHGLQAKDYYDDPEGGYIDQRGDDYQINSYLGRNGEMVDPYDYENSLRHMTPMERREYLHDDSRPVNDGKEELDSVKSGYSHRDLGEYDKDDFSRDDEYDDLNTIDKLQFQANGVPASSSVSSIGSKESDIIVSNDNLTANRALKRSGTEIRKFKLWNGNFVFDSPISKTLLDQYATTTENANTLPNEFKFMRYQAVTCEPNQLAEKNFTVRQLKYLTPRETELMLVVTMYNEDHILLGRTLKGIMDNVKYMVKKKNSSTWGPDAWKKIVVCIISDGRSKINERSLALLSSLGCYQDGFAKDEINEKKVAMHVYEHTTMINITNISESEVSLECNQGTVPIQLLFCLKEQNQKKINSHRWAFEGFAELLRPNIVTLLDAGTMPGKDSIYQLWREFRNPNVGGACGEIRTDLGKRFVKLLNPLVASQNFEYKMSNILDKTTESNFGFITVLPGAFSAYRFEAVRGQPLQKYFYGEIMENEGFHFFSSNMYLAEDRILCFEVVTKKNCNWILKYCRSSYASTDVPERVPEFILQRRRWLNGSFFASVYSFCHFYRVWSSGHNIGRKLLLTVEFFYLFFNTLISWFSLSSFFLVFRILTVSIALAYHSAFNVLSVIFLWLYGICTLSTFILSLGNKPKSTEKFYVLTCVIFAVMMIYMIFCSIFMSVKSFQNILKNDTISFEGLITTEAFRDIVISLGSTYCLYLISSIIYLQPWHMLTSFIQYILLSPSYINVLNIYAFCNVHDLSWGTKGAMANPLGKINTTEDGTFKMEVLVSSSEIQANYDKYLKVLNDFDPKSESRPTEPSYDEKKTGYYANVRSLVIIFWVITNFIIVAVVLETGGIADYIAMKSISTDDTLETAKKAEIPLMTSKASIYFNVILWLVALSALIRFIGCSIYMIVRFFKKVTFR", "values": [
      {"measurement": "stoichiometry N", "setting": "[3]", "value": 2}
    ]}
  ]
}
